Regarding `CC(=O)NCCc1ccc(CCC(=O)O)cc1`, the melting point (as a rule, the temperature, or range, at which the solid turns liquid) was in the range of 132 to 133 °C.

For the compound `CCCCCCCCCCCCCCOc1ccc(C(=O)Nc2ccccc2)cc1`, the melting point lay in the range of 124 to 126 °C.

Compound `Cc1cccc(NC(=O)c2cc(C#N)cc(C)n2)c1` gave a melting point of 160 °C.

Take `Cc1nc2oc3c(c2c(=O)[nH]1)CCCC3`: the melting point is more than 300 °C.

The compound `CCOc1ccc(-c2nc3n(c2-c2ccncc2)CCC3)cc1` displayed a melting point of 133 to 135 °C.

`CC(C)OC(=O)Nc1ccc(-c2ccnc3c(C(=O)c4cccs4)cnn23)s1`: the melting point was in the range of 210 to 215 °C.

Compound `Cc1oc(-c2ccccc2)nc1COc1ccccc1CO` gave a melting point of 155 to 156 °C.

In turn, `S=C1NCSc2ccsc21` registered a melting point of 136 to 138 °C.

In the case of `CCCCCCCCC=CCCCCCCCC(=O)Cl`, the melting point lay in the range of 73 to 74 °C.

The compound `Cc1nc(C(=O)c2ccc(Cl)cc2)sc1C` returned a melting point of 97 °C.

The compound `CC(C)SN(C)C(=O)Nc1ccc(Cl)c(Cl)c1` came in with a melting point of 65 °C.

The compound `CC(=O)c1cccc(N2CCN(CCCCOc3ccc4ccc(=O)[nH]c4n3)CC2)c1Cl` yielded a melting point of 108 to 110 °C.

The compound `CCSc1ccc(Cl)nc1C#N` gave a melting point of 79 to 81 °C.

On to `CCCc1c(OCCCOc2c(C(C)=O)ccc(OCC(=O)O)c2CCC)ccc(C(C)=O)c1O`, for which the melting point was 124 to 125 °C.

Take `COc1cc(OC)c2c(=O)[nH]c(-c3ccc(OCCO)c(-c4ccccc4S(C)(=O)=O)n3)nc2c1`: the melting point lay in the range of 92 to 93 °C.

In turn, `CCC(=O)Oc1cccc2c1C(=O)c1c(OC(=O)CC)cc(-c3nnn[nH]3)cc1C2=O` yielded a melting point of 176 to 178 °C.

Turning to `CC12CC(O)CCC1CCC1C2CCC2(C)C(O)C(N3CCCCC3)CC12` (stereo not given), the melting point fell in the range of 215 to 219 °C.

Take `C[C@@H]1OCCN(c2nc(N3CCOCC3)nc(-n3c(C(F)F)nc4ccccc43)n2)[C@@H]1C` (relative stereo): the melting point lay in the range of 176 to 178 °C.

`CC(C)(NC(=O)CCn1cnc(C=O)c1)c1ccc(Cl)c(Cl)c1` came in with a melting point of 161 to 163 °C.

In the case of `COc1cc(OC2CCN(Cc3cccnc3)CC2)ccc1CC(=O)N1CCN(c2ccccc2C)CC1C(N)=O` (stereo not given), the melting point was 78 to 81 °C.

In the case of `Cc1nc2n(n1)C(N1CCN(C)CC1)=Nc1ccccc1C2`, the melting point was 185 to 187 °C.

`COCCOC(=O)C1=NNC(C)=C(C(=O)OC(C)C)C1c1cccc([N+](=O)[O-])c1` (stereo not given) registered a melting point of 165 °C.

Take `CON=Cc1c(C(=O)OC)[nH]c2c(C)ccc(C)c12`: the melting point is 107 to 108 °C.

Consider `O=C(O)c1ccc(-c2nc(-c3ccc(Cl)s3)cs2)cc1`, for which the melting point is 283 to 284 °C.

Compound `CCn1ncc2c(N(C)Cc3ccccc3)c3ccccc3nc21` gave a melting point of 175 to 177 °C.

`CC#CCOc1ccc(S(=O)C(C(=O)NO)c2ccccc2OC)cc1` (stereo not given) came in with a melting point of 168 °C.

Compound `O=c1c(Cl)nc2cccnc2n1-c1ccc(Cl)cc1` gave a melting point of more than 300 °C.

As for `CN(C)CCOC(=O)C(=O)c1ccc(OCCOc2ccc3ccccc3c2)s1`, the melting point lay within 76 to 77 °C.

For `Cc1ccccc1C(=O)Nc1ccc(-n2nc(C3CC3)cc2C2CC2)c(F)c1`, the melting point lay within 105 to 107 °C.

Compound `CN=C(N)Nc1nc(-c2cccc(C(=O)NC)c2)cs1` registered a melting point of 111 to 113 °C.

Compound `NC1=NS(=O)N=C1NCCCN(Cc1ccsc1)c1ccccn1` (stereo not given) registered a melting point of 140 to 142 °C.

`Cc1ncc(C#N)c(Nc2cccc3[nH]ccc23)c1-c1ccc(OCCCl)cc1` yielded a melting point of 185 to 186 °C.

With `CCc1cccc(CC)c1-n1cncc1C(N)=O`, the melting point was 171 to 172 °C.

Take `CCCn1c(COCC)nc2c(N)nc3ccc(OC4CCNCC4)cc3c21`: the melting point lay in the range of 176 to 178 °C.

`CCCCOc1c(CNC(=O)OC(C)(C)C)n(CC(C)C)c(=O)c2ccc(-c3nc(C)c(C(=O)OCC)s3)cc12` yielded a melting point of 146 to 147 °C.

Regarding `CC(C)(C)OC(=O)CN(C(=O)CN1C(=O)c2ccccc2C1=O)c1ccccc1-c1ccccc1`, the melting point was 145 °C.

In turn, `CCOC(=O)CC[C@H](NC(=O)c1ccc(N)cc1F)C(=O)OCC` gave a melting point of 130 to 132 °C.

Regarding `N#CC(=NNc1ccc(C2=NNC(=O)CC2)cc1)C(N)=C(C#N)C#N`, the melting point is more than 300 °C.

`Cc1[nH]c2cccc3c2c1CC1C3CC(N)CN1C` (stereo not given) had a melting point of 240 °C.

In turn, `O=C1N(Cc2ccc(N3CCOCC3)cn2)c2ccccc2C12COc1cc3c(cc12)OCCO3` (stereo not given) displayed a melting point of 204 to 206 °C.

The compound `COC(=O)c1cc(C(=O)O)ccc1N` registered a melting point of 224 °C.

Compound `CC(C(=O)O)c1cccc(Sc2ccccc2F)c1O` (stereo not given) registered a melting point of 116 to 117 °C.

Compound `CC1(C)COC(c2ccc(CC34CCCCN3C(=O)N(c3cc(Cl)cc(Cl)c3)C4=O)cc2)=N1` (stereo not given) yielded a melting point of 87.2 °C.

With `O=C(CCCCl)c1ccc2c(c1)Cc1cc(C(=O)CCCCl)ccc1O2`, the melting point was 131 to 132 °C.

For `CC(C)n1nc(-c2nc(C#N)c(C#N)nc2-c2ccccc2)ccc1=O`, the melting point fell in the range of 201 to 202 °C.

As to `Cc1cccc2[nH]c(=O)c(=O)[nH]c12`, the melting point came to 325 °C.

Take `COc1ccc(C=O)cc1OCc1nc(-c2ccccc2)oc1C`: the melting point was 121 to 122 °C.

The compound `CN1CC(C[N+]2([O-])CC(=O)NC2=O)CC2c3cccc4[nH]cc(c34)CC21` (stereo not given) showed a melting point of 163 to 165 °C.

The compound `C=C(F)c1c(C(=O)OC)nc(Cl)c(F)c1N` yielded a melting point of 98 to 100 °C.

The compound `O=C1Nc2ccccc2C1(c1ccc(O)cc1)c1ccc(O)cc1` came in with a melting point of 267 °C.

Compound `COc1c(OCC(F)(F)F)ccnc1CSc1nc2ccc(C(F)(F)F)cc2[nH]1` showed a melting point of 80 to 82 °C.

As to `Cc1ccccc1-c1cn(C)cc(-c2cccc(C(F)(F)F)c2)c1=O`, the melting point lay within 144 to 147 °C.

The compound `Cc1cc(Oc2ccc(C(F)(F)F)cc2[N+](=O)[O-])nn1C(=O)OC(C)(C)C` had a melting point of 68 to 70 °C.

On to `CCCC(OC(=O)c1ccncc1)C(=O)O` (racemic), for which the melting point fell in the range of 152 to 153 °C.

`COc1cccc(OCCO)c1-c1ccc(C[C@H](NC(=O)c2c(Cl)cccc2Cl)C(=O)O)cc1` yielded a melting point of 158 to 159 °C.

With `CC(C)[C@@H](CO)C[C@H](O)[C@H](CC1CCCCC1)NC(=O)OCc1ccccc1`, the melting point was in the range of 113 to 114 °C.

`COc1cc(OC(CCc2ccc(Cl)cc2)Cn2ccnc2)ccc1NC(C)=O` (stereo not given) had a melting point of 175 to 178 °C.

On to `CCOC(=O)C1=CCCCC1S(=O)(=O)Nn1cccc1-c1ccccc1` (stereo not given), for which the melting point was in the range of 160 to 161 °C.

Take `Cc1cc(CO)cc(C)c1O`: the melting point was in the range of 102 to 104 °C.

The compound `CCNc1nc(N2CCN(Cc3ccccc3)CC2)ncc1C(=O)O` came in with a melting point of 158 to 160 °C.

Compound `CC(=O)OC1N=C(c2ccccc2F)c2cc(Cl)ccc2-n2c1cnc2C` (stereo not given) came in with a melting point of 201 to 202 °C.

Consider `CNc1ncnc2c1ncn2Cc1c(Cl)cccc1Cl`, for which the melting point lay within 219 to 220 °C.

The compound `NC(=O)N[C@@H]1CN2C(=O)N(c3cc(Cl)nc(Cl)c3)C(=O)[C@@]2(Cc2ccc(OC(F)(F)F)cc2)C1` returned a melting point of 142 °C.

For the compound `C[C@@H]1Cc2ccccc2O[C@H]1c1ccccc1` (relative stereo), the melting point was 77 to 78 °C.

Turning to `CCOC1CCC2C3CCC4=CC(=O)CCC4=C3C(c3ccc(C=O)cc3)CC12C` (stereo not given), the melting point lay within 149 to 152 °C.

Turning to `CCOC(=O)C(CC=Cc1ccccc1)(NC(C)=O)C(=O)OCC`, the melting point is 70 to 75 °C.

Regarding `Cc1ccc(C23CCC(O)(CC2)CC3)cc1`, the melting point is 144 °C.

The compound `CN1Cc2c(Br)ncn2-c2ccc(F)cc2C1=O` returned a melting point of 200 °C.

For the compound `CCOC(=O)C(C)Sc1ncnc2c(O)n(C)nc12` (stereo not given), the melting point lay within 127 to 131 °C.

In the case of `O=C(O)CCc1cc2nc(C(F)(F)F)ccc2n1S(=O)(=O)c1cccc2ccccc12`, the melting point was 116 to 117 °C.

With `CC(CCCCCCCCCCCCC(=O)O)CC(=O)O` (stereo not given), the melting point lay within 77 to 78 °C.

`COC(=O)C(O)C(C)(Oc1ccc(Br)cc1)c1ccccc1` (stereo not given) had a melting point of 133 to 135 °C.

In turn, `CNC(=O)CNC(=S)c1cccnc1` displayed a melting point of 135 to 137 °C.

Regarding `N=C(N)NC1=NC(=O)C(=Cc2cccc(-c3cc(F)c(O)c(C45CC6CC(CC(C6)C4)C5)c3)c2)S1`, the melting point was 288 to 290 °C.

`Cc1ccc(-c2nc(C(F)(F)F)oc2-c2ccc(S(C)(=O)=O)cc2)cc1` returned a melting point of 141 to 142 °C.

As for `COc1cc(C2C3=C(COC3=O)N(C)c3cc4c(cc32)OCO4)cc(OC)c1OC` (stereo not given), the melting point is 226 °C.

`CCCc1c(OCCCCc2cccc(O)c2O)ccc(C(C)=O)c1O` had a melting point of 103 to 105 °C.

Turning to `COc1cc(OC)c2c(=O)[nH]c(-c3cccc(N4CCN(CCS(C)(=O)=O)CC4)n3)nc2c1`, the melting point lay in the range of 243 to 244 °C.

`O=C(NCc1ccccn1)Nc1cc(N2CC(c3ccccc3)OC2=O)ccn1` (stereo not given): the melting point lay in the range of 190 to 191 °C.

In turn, `Nc1ccc(OCC(=O)OCCOC(=O)COc2ccc(N)cc2)cc1` had a melting point of 124 to 126 °C.

Compound `CCCOc1ccccc1CCOc1ccc2c(c1)C=C(C(=O)Nc1ccc(CN(C)C3CCOCC3)cc1)CCS2(=O)=O` displayed a melting point of 161 to 162 °C.

`C#CCn1c(=O)sc2cc(F)c(-c3ccc(C(F)(F)F)n(C)c3=O)cc21`: the melting point was in the range of 150 to 151 °C.

Regarding `CCN(C)C1=NS(=O)(=O)c2ccc(Cl)cc2N1`, the melting point is more than 220 °C.

For the compound `Cc1nsc2cc(N)c([N+](=O)[O-])cc12`, the melting point lay in the range of 189 to 191 °C.

`COc1cc(CC(=O)NCCCOc2ccc(C)c(C)c2)ccc1OCCN` returned a melting point of 103 to 106 °C.

As for `Cc1ccccc1C(=O)Nc1ccc(C(=O)O)cn1`, the melting point lay within 235 to 238 °C.

`COC(C(N)=O)C(=O)O` (stereo not given) displayed a melting point of 128 to 130 °C.

`CC12CC(N3CCC4(CC3)OCCO4)C(O)CC1CCC1C2CCC2(C)C(O)C(N3CCCC3)CC12` (stereo not given) returned a melting point of 184 to 187 °C.

With `CN(C)C=CC(=O)c1cncnc1`, the melting point was in the range of 133 to 135 °C.

With `Cc1ccc(C(=O)O)c(C2=NC(=O)C(C)(C(C)C)N2)n1` (stereo not given), the melting point fell in the range of 139 to 142 °C.

Source of the values: a melting point compilation (Tetko et al.; mined from patent text by program, amines drawn as free bases though some values may be those of a salt).
